Target: T1, recombinant human MPST (3-mercaptopyruvate sulfurtransferase) (Homo sapiens, UniProt P25325)
T1 sequence (P25325 1-317 isoform P25325-2): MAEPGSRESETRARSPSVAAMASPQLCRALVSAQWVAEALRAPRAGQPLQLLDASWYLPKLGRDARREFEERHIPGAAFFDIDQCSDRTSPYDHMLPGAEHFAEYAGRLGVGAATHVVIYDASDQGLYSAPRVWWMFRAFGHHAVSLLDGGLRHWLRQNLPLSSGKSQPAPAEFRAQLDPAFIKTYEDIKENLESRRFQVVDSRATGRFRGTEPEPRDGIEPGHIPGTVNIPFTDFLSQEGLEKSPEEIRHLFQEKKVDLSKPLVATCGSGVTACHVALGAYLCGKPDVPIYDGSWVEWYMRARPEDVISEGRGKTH
Test: isothermal titration calorimetry
Format: binding

- Kd: 3.2 µM
SMILES: C[N+](C)(C)[C@@H](Cc1c[nH]c(=S)[nH]1)C(=O)[O-] [ergothioneine]
